The test is described as follows: Biomol Green Assay: Biomol Green (Enzo) […] formed from a biochemical reaction. Because of its high sensitivity, the assay is suitable for monitoring enzyme activities at very early substrate conversions requiring very low amount of enzymes.

Several values for one entry are separate records, joined by “and”; a condition that tells them apart may be missing. Equal entries are not always repeated.

In general, IC50 refers to the concentration needed to halve the response being measured. A lower IC50 goes with inhibition by little substance. `Cc1cc(OCc2nnc(SC3C=CCCC3)n2-c2cccnc2)ccc1C#CCOC(=O)NN1CCN(C)CC1` (stereo not drawn): the IC50 was 25 nM and 15 nM.

As to `Cc1cc(OCc2cnc(SC3C=CCCC3)n2-c2cccnc2)ccc1C#CCOC(=O)NCCN1CCN(C(C)C)CC1` (stereo not drawn), the IC50 turned out to be 26 nM. In other words, the double-digit nanomolar range.

`Cc1cc(OCc2nnc(CC3CCCC3)n2-c2cccnc2)ccc1C#CCNC(=O)OC(C)(C)C` displayed an IC50 of 260 nM.

For the origin of these results see ChEMBL document CHEMBL5728225, “Modulators of P97 AAA ATPase activity” (2021).
